Literature values in patent US20040110828A1, “Tetrahydrocannabinol compositions and methods of manufacture and use thereof” (priority 2002, published 2004).

Structure (SMILES): CCCCCc1cc(O)c2c(c1)OC(C)(C)[C@@H]1CCC(C)=C[C@@H]21 [Delta 9-THC, Delta 9-tetrahydrocannabinol]
- half-life of blood level (IV administration, slow phase after the initial distribution (first 30 minutes)): ≥ 19 h
- compound and its metabolites remaining in the body (one week after an IV injection of a single dose): 25-30%
